# PMC7819857, “Identification of Inhibitors of Integrin Cytoplasmic Domain Interactions With Syk” (Frontiers in Immunology, 2021)
# Biological target: T1, integrin β3 cytoplasmic domain (bβ3(fl)) : GST-Syk(6-370) (Homo sapiens, UniProt P43405)
# T1 construct: the tandem SH2 domains of Syk (residues 6-370); made in house; host or cells: E. coli BL21(DE3)
# Assay: ELISA-based orthogonal assay, bβ3(fl) and GST-Syk(6-370)
# Assay type: binding
# Experimental: For ELISA-based assays, 96-well plates (Costar cat# 9018) were coated overnight at 4°C with neutravidin (Thermo Scientific, cat#31050) in 10 mM Tris pH 9 and 100 mM NaCl. After overnight incubation, non-specific binding sites were blocked with bovine serum albumin (BSA) (2% w/v) for at least 1 h at room temperature. Plates were washed in 25 mM HEPES pH 7.5, 100 mM NaCl, 0.1% BSA, and 0.01% TritonX-100 (assay buffer), and indicated biotinylated β3 peptide was incubated for at least 2 h at room temperature (0.5–3 ug/ml in di-H2O). After washing in the assay buffer, GST-fusion proteins were added (50 ul, indicated concentrations) and incubated at room temperature for 1 h in assay buffer. For compound inhibition studies, compounds were added to GST-fusion proteins (at indicated concentrations) before they were added to plates. Plates were washed 3× with assay buffer (200 ul) to remove unbound GST-fusion protein. Horseradish peroxidase (HRP)-conjugated anti-GST antibody [Polyclonal anti-GST(Z-5)-HRP, Santa Cruz Biotechnology, cat #sc-459 0.2 ug/ml] was incubated in washed plates in 50 ul assay buffer for 45 min at room temperature. After washing, the signal was generated with 1-step Ultra TMB-ELISA (Thermo Scientific, cat#34028), stopped with 2 N H2SO4, and read on a plate reader (SPARK 10M/Tecan) at 450 nm.
# Figure 3 Dose-response curves in primary and orthogonal screens. (A) AlphaScreen dose-response curves. […] Data are expressed as mean fluorescence (Fl520) ± range from duplicates, and one representative experiment of “n” performed is shown. (B) Orthogonal ELISA-based dose-response assays. […] Data are expressed as mean abs450 ± SEM from triplicate determinations, and one of three representative experiments is shown. (C) Ceftazidime inhibition of β3 peptide binding to Syk from THP-1 whole cell lysate. THP-1 cell lysate (100 ug) was treated with or without ceftazidime (Ctaz) before incubation with β3-coated avidin-agarose beads, and bound Syk was measured by western blot (example shown in inset). Blank beads served as a negative control. […]
smiles,measurement,value
CC(C)(O/N=C(\C(=O)N[C@@H]1C(=O)N2C(C(=O)[O-])=C(C[n+]3ccccc3)CS[C@H]12)c1csc(N)n1)C(=O)O [ceftazidime],inhibitory activity in ELISA-based orthogonal assay,remained active
